In test [1] the test system is HCT-116 human colon tumor cells. As to the kind of experiment: Compound-induced apoptosis in HCT-116 human colon tumor cells (microscopy for morphological markers). In kind it is cell-based. The method, then:
HCT-116 human colon tumor cells obtained from the American Type Culture Collection (ATCC) were grown in McCoy's 5A culture medium with 10% heat inactivated FBS, 1× penicillin/streptomycin, and 25 mM HEPES, in an incubator maintained at 37° C. with CO2 at 6-7% and humidity at 95%. Cells were treated with compounds using a dose range from 0.04 μM to 100 μM. After 48 hours they were examined by microscopy for signs of cell rounding, vaccuolation, and nuclear condensation. These are morphological markers associated with apoptosis, and are consistent with results obtained by performing an assay for nucleosomal DNA, or a TdT-mediated dUTP nick end labeling (TUNEL) assay.
The concentrations cited are the minimal concentration required to induce these morphological changes in 50% of the treated cells.

Another test concerns the target T1, rat RabGGT (Rattus norvegicus, UniProt Q08602+Q08603).
T1 construct: purchased Calbiochem 345855; host or cells: Sf9/baculovirus
T1 sequence (Q08602 1-567): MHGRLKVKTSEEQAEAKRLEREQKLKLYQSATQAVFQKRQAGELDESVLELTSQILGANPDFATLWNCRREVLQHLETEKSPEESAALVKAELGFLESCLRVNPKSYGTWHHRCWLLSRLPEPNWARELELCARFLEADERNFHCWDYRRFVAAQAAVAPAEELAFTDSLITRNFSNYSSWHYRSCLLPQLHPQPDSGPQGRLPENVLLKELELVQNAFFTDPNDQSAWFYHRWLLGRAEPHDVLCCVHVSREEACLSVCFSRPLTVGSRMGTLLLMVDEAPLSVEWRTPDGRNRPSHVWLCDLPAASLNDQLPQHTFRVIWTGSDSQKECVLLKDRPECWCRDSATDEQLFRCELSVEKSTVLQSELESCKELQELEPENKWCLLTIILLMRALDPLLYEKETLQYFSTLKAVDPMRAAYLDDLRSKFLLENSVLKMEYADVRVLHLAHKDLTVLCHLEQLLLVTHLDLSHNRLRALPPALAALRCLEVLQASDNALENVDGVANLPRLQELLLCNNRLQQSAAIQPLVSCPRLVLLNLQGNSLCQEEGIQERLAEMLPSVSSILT
T1 sequence (Q08603 1-331): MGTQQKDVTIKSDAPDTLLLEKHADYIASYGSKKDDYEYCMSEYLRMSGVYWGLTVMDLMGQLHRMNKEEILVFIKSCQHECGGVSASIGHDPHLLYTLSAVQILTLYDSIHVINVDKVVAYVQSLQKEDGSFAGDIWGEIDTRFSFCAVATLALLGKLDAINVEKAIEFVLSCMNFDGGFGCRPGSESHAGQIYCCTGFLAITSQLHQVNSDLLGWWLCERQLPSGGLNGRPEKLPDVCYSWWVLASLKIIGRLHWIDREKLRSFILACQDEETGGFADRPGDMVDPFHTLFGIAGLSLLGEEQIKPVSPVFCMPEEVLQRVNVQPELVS
As to the kind of experiment: RabGGT filter binding assay: transfer of (3H)geranylgeranyl from 3H-GGPP to recombinant Rab3A. The class given is biochemical. Particulars: for IC90/IC50: RabGGT inhibition; for RabGGT inhibition: rat RabGGT enzyme. From the text:
The effect of compounds 7A through 7T on RabGGT activity was quantified using a filter binding assay that measures the transfer of (3H) geranylgeranyl groups (GG) from all-trans-(3H)geranylgeranyl pyrophosphate (3H-GGPP) to recombinant Rab3A protein (Shen & Seabra, 1996, JBC, 271 :3692; Armstrong et al., 1996, Methods in Enzymology 257:30). Modifications to published protocols are noted explicitly below.
Recombinant rat RabGGT, expressed using the Sf9/baculovirus system, was purchased from Calbiochem (cat. no. 345855). Recombinant unprenylated human Rab3A was obtained from Panvera.(cat. no. P2173). Human REβ-1, expressed in Sf9 cells, was obtained from Calbiochem (cat. no. 554000). Tritium labeled geranylgeranyl pyrophosphate was purchased from Amersham Pharmacia Biotech (15 Ci/mmol). Unlabeled GGPP was purchased from Sigma (cat. no. G-6025).
The reaction buffer contained 50 mM HEPES pH7.4, 5 mM MgCl2, 1 mM DTT, 1 mM Nβ-40. Solutions of RabGGT, Rab3A, REP-1, and GGPP were prepared in this reaction buffer. Final protein concentrations in the reaction mixture were modified from the published protocols, with the standard reaction mixture containing 2 μM Rab3A, 0.2 μM REP-1, 5 μM unlabeled GGPP, 0.5 μM labeled GGPP, and 10-50 nM RabGGT in a total volume of 20 μl. The specific activity of (3H)GGPP used in the assay was 3000 dpm/pmol.
Compounds were prepared as 50 mM stocks in DMSO and diluted to give an appropriate concentration for the assay as a 20% DMSO stock. 2 μl of the diluted compound stock was added to a 20 μl reaction to give a final DMSO concentration of 2% in the assay.
The order of addition of reagents was altered from the published protocols. Reaction mixtures were prepared by sequentially adding Rab3A and REP-1 proteins to the reaction buffer, followed by compound and RabGGT enzyme to a volume of 18 μl. Reactions were initiated by the addition of 2 μl of a solution that contained unlabeled and labeled GGPP. After a 30 minute incubation at 37° C., 1 ml of stop solution (1 volume of concentrated HCl acid with 9 volumes of ethanol) was added and mixed. The solution was then incubated at room temperature for 1 hour to completely precipitate proteins.
The precipitate was collected by vacuum filtration using a vacuum filtration manifold (Millipore model 1225) onto 25 mm GF/A filters (Whatman) that were prewetted with ethanol. The tubes were rinsed twice with 1 ml ethanol which was also poured over the filters. Each filter was subsequently washed three times with 2 mls of ethanol per wash, dried under vacuum, and then put in scintillation vials. Four milliliters of scintillation fluid was added and the radioactivity was quantified on a scintillation counter. Several types of blank reactions were conducted including withholding the enzyme, the substrate, or the accessory protein REP-1, or replacing the compound solution with a 20% DMSO solution. For the substrate titration experiment, the equimolar amounts of Rab3A and REP-1 were mixed and preincubated for 30 min at room temperature before addition of the enzyme.
The data was analyzed by non-linear regression analysis methods using the program PRIZM (GraphPad Software, Inc.). Inhibition constants were obtained by analyzing the data using the one site competition equation provided by the software. FIG. 7 presents a typical data series obtained for compound 7B using these methods.

In test [2] the target is Farnesyl Transferase (FT) (Homo sapiens, UniProt P49354+P49356). Nature of the test: Biochemical assay for inhibition of farnesyl transferase (FT). On the procedure: Biochemical assays for inhibition of FT were performed as described by Mann et al. (1995, Drug Dev. Res. 34: 121) with the modifications described by Ding et al. (1999, J. Med. Chem., 42:5241)
The mark [3] stands for this setting: HCT-116, 48 h, HCT116 cells, 48 hours, minimal concentration inducing apoptotic morphological changes in 50% of treated cells, read-out: 50% APOPTOTIC
Where [4] appears, read: HCT-116, minimum concentration required to achieve apoptosis of 50% of the HCT116 cells (Table 7), read-out: HCT116 50% apoptosis.
Setting [5] is: HCT-116, minimum concentration required to achieve apoptosis of 50% of the HCT116 cells (Table 8), read-out: HCT116 50% apoptosis.
[6] abbreviates: recombinant rat RabGGT, Rab3A, REP-1, 30 minute at 37° C.

Read-outs that look alike come from different tables or passages of the source. Bounds are passed on as bounds.

On to `Cn1cc(S(=O)(=O)N(Cc2ccsc2)C2Cc3cc(C#N)ccc3N(Cc3cncn3C)C2)cn1` (stereo not shown) [Compound 7N], for which the figures for the EC50 in test [1] (setting [3]), in test [1] (setting [4]) and in test [1] (setting [5]) were 3700 nM, 3300 nM and 3300 nM, respectively. Also, the IC90/IC50 on rat RabGGT was 12. Besides, the IC50 on rat RabGGT (Table 7) amounted to 25 nM; on rat RabGGT (setting [6]), 25 nM; in test [2], 0.7 nM. Also, the values for the IC90 (on rat RabGGT (setting [6]); in test [2]) were 309 nM and 9 nM, respectively.

`C=C(C)CN(C1Cc2cc(C#N)ccc2N(Cc2cncn2C)C1)S(=O)(=O)N1CC=CC1` (stereo not shown) [Compound 7O]: the EC50 in test [1] (setting [3]), in test [1] (setting [4]) and in test [1] (setting [5]) was 10000 nM each time. Further, on rat RabGGT, the IC90/IC50 was 19. Also, the IC50 at rat RabGGT (Table 7) was found to be 58 nM; on rat RabGGT (setting [6]) it was 58 nM; in test [2], 1.4 nM. Besides, the IC90 at rat RabGGT (setting [6]) was determined as 1120 nM; in test [2], 8 nM.

As to `Cn1cncc1CN1CC(N(Cc2ccsc2)S(=O)(=O)c2ccccn2)Cc2cc(C#N)ccc21` (stereo not shown) [Compound 7P], the EC50 in test [1] (setting [3]), in test [1] (setting [4]) and in test [1] (setting [5]) was 25000 nM throughout. The IC50 was 84 nM on rat RabGGT (Table 7), 84 nM on rat RabGGT (setting [6]) and 0.7 nM in test [2]. In addition, the IC90 came to 2160 nM at rat RabGGT (setting [6]) and 4 nM in test [2].

Regarding `Cn1cnc(S(=O)(=O)N(Cc2ccsc2)C2Cc3cc(C#N)ccc3N(Cc3cncn3C)C2)c1` (stereo not shown) [Compound 7Q], the EC50 in test [1] (setting [3]), in test [1] (setting [4]) and in test [1] (setting [5]) was 30000 nM throughout. Besides, the results for the IC50 (at rat RabGGT (Table 7); at rat RabGGT (setting [6]); in test [2]) were 47 nM, 47 nM and 0.6 nM, respectively. Moreover, the values for the IC90 (on rat RabGGT (setting [6]); in test [2]) were 2300 nM and 6 nM, respectively.

Turning to `Cn1cncc1CN1CC(N(CC(=O)OC(C)(C)C)S(=O)(=O)c2ccccn2)Cc2cc(C#N)ccc21` (stereo not shown) [Compound 7R], the EC50 in test [1] (setting [3]), in test [1] (setting [4]) and in test [1] (setting [5]) was 30000 nM each time. Besides, the IC90/IC50 at rat RabGGT came out at 19. Also, the IC50 at rat RabGGT (Table 7) came to 541 nM; at rat RabGGT (setting [6]) it was 541 nM; in test [2], 1.5 nM. On rat RabGGT, the “RabGGT inhibition” value is on record as “weaker inhibitors”. Also, the figures for the IC90 (at rat RabGGT (setting [6]); in test [2]) were 10100 nM and 9 nM, respectively.

Regarding `Cn1cncc1CN1CC(NS(=O)(=O)c2ccccn2)Cc2cc(C#N)ccc21` (stereo not shown) [Compound 7S], the EC50 in test [1] (setting [3]), in test [1] (setting [4]) and in test [1] (setting [5]) was 50000 nM each time. Also, the IC90/IC50 at rat RabGGT amounted to 19. Also, the IC50 is 73 nM at rat RabGGT (Table 7), 73 nM at rat RabGGT (setting [6]) and 15.5 nM in test [2]. Further, the IC90 on rat RabGGT (setting [6]) turned out to be 1400 nM; in test [2], 255 nM.

On to `Cc1nc(CN(C2Cc3cc(C#N)ccc3N(Cc3cncn3C)C2)S(=O)(=O)c2ccccn2)cs1` (stereo not shown) [Compound 7T], for which the EC50 in test [1] (setting [3]), in test [1] (setting [4]) and in test [1] (setting [5]) was 90000 nM throughout. The IC90/IC50 on rat RabGGT is above 10. For the same molecule, the IC50 amounted to 1430 nM on rat RabGGT (Table 7), 1430 nM at rat RabGGT (setting [6]) and 3.7 nM in test [2]. For the same molecule, the IC90 is above 15000 nM on rat RabGGT (Table 7), above 15000 nM at rat RabGGT (setting [6]) and 48 nM in test [2]. In addition, the “RabGGT inhibition” value on rat RabGGT was “weaker inhibitors”.

The IC50 is the concentration that inhibits the measured activity by half. Usually IC90 stands for the concentration at which the effect reaches the 90% level.

(Values after patent US20040142888A1, “Modulators of RabGGT and methods of use thereof” (priority 2002, published 2004).)
